Assay results reported in patent publication US6593369B2, “Methods, compositions, and kits for enhancing female sexual desire and responsiveness” (Vivus, Inc., priority 1997, dated 2003).

Legend:
clitoris [1] = assay: Measurement of clitoral skin temperature after topical application to the clitoris; type: in vivo, human
Text: 2. Measurement of clitoral skin temperature:
A highly sensitive thermocouple capable of determining changes in skin temperature of 0.002 degrees Fahrenheit was connected to a computer-based recording device (F1000 by Focused Technology, Inc.) and used to measure changes in clitoral skin temperature. The patient changed from their clothes into a gown and was placed in a semi-reclining position in a comfortable recliner. Room temperature was controlled at 76 degrees F. (±1) and no air drafts were present. The thermocouple was coated with a small amount of lubricating jelly and placed in a labial skin fold adjacent to the clitoris. A period of equilibration (˜15 minutes) allowed the measured temperature to stabilize. Next, precise doses of various pharmaceuticals were applied as solutions directly to the clitoris by a calibrated micropipette (Justor 1100DG, Sigma; St. Louis, Mo.). Typical volumes used were 20-50 microliters. Clitoral temperatures were continually measured and printed for analysis. Increases in skin temperature directly correlate with changes in cutaneous blood flow. See Birnbaum (U.S. Pat. No. 4,311,707) for an example of using this method to compare the relative vasodilatory potency of topical prostaglandins. Changes in skin temperature are reported as maximum recorded temperature in an interval minus the temperature at the end of the equilibration period. The magnitudes of these recorded temperature changes may be used as a measurement of the change in clitoral blood flow.
(§1) 1. Solutions of prostaglandin E-1 and E-2 were prepared by dissolving weighed amounts of the prostaglandin in triacetin to produce a concentrated stock solution. Serial dilutions of this stock solution were made by a micropipette. Since triacetin can partially hydrolyze on standing to produce traces of acetic acid, the triacetin was treated with a small amount of a concentration potassium bicarbonate solution to remove any acetic acid, then dried with magnesium sulfate and filtered to give a triacetin free of acid or water. Solutions were used the same day that they were made. Concentrations of prostaglandin varied from 2.0-1,000 micrograms per milliliter of triacetin. Following equilibration of clitoral temperature, a dose of triacetin was applied to the clitoris prior to active drug solutions to determine the effect of the carrier on the clitoris.
(§2) 2. R-alphamethylhistamine hydrochloride is not soluble in triacetin but is soluble in saline. Normal saline +2 millimolar potassium phosphate at pH 7.4 was used to prepare solutions of R-alphamethylhistamine hydrochloride with concentrations from 2.5-100 micrograms per milliliter of saline.
(§3) Solutions were applied directly to the clitoris by means of a calibrated micropipette (Justor 1100DG, Sigma; St. Louis, Mo.).

clitoral artery = assay: Measurement of clitoral blood flow by ultrasound (Doppler velocitometer); type: in vivo, human; settings: Patient No. 1; for Change in Clitoral Blood Flow: peak systolic flow vs baseline; for Change in Clitoral Blood Flow, percent in brackets: vs baseline
Text: 1. Measurement of clitoral blood flow by ultrasound:
Clitoral blood flow was estimated by utilizing the Knoll-Midas ultrasonic Doppler velocitometer (Urometrics, Inc.). The ultrasound probe was manually positioned over the middle of the clitoral body as it courses superficially through the perineum between the external vaginal opening and the end of the clitoris (glans clitoris). […] This method is analogous to that used in measuring the cavernosal artery velocity in the penis. The clitoral artery was easily visualized. Measurements were made at baseline and at various time intervals following the application of a drug to the clitoris. Peak systolic blood flow at baseline was compared to peak systolic blood flow following drug administration as a method of comparing relative efficacy in inducing clitoral artery vasodilatation in a manner analogous to studies of such drugs in men.
as §1, §3

clitoris [2] = assay: Patient subjective reports of sexual arousal and symptoms after application to the clitoris; type: in vivo, human
Experimental: 3. Patient Subjective Reports:
Patient reports of symptoms and effects of agents on sexual arousal measures (such as warmth and tingling, vaginal lubrication and excitation) were recorded. Blood pressure and pulse were also recorded. Different drugs were given on different days. Some series of drug titrations were recorded on several days.
as §1, §2, §3

clitoris [3] = assay: Subjective examples: composition applied directly to the clitoris of female subjects; type: in vivo, human
Text: The clitoris is often retracted or hidden under the clitoral hood. Thus, prior to administration of the present composition, the clitoral hood should be retracted with the finger of one hand, and the clitoral hood should be held back as the dose is applied. IV. Subjective Examples

[4] = Chemical stability of prostaglandin preparations; type: physicochemical; settings: composition containing a citrate salt or tocopherol
[5] = Patient No. 1, 0.020 mcg in triacetin on clitoris
[6] = Patient No. 1, 0.200 mcg in triacetin on clitoris
[7] = Patient No. 1, 0.400 mcg in triacetin on clitoris
[8] = Patient No. 1, 1.000 mcg in triacetin on clitoris
[9] = Patient No. 1, 10.0 mcg in triacetin on clitoris
[10] = Patient No. 1, 50.0 mcg in triacetin on clitoris
[11] = Patient No. 2, 1.000 mcg in triacetin on clitoris
[12] = Example 2, 50 μg with 150 μg phentolamine hydrochloride
[13] = Example 6, 300 μg liposomal mixture after 50 mg naltrexone HCl 2 hours before, person, anorgasmia secondary to paroxetine

SMILES: CCCCC[C@H](O)/C=C/[C@H]1[C@H](O)CC(=O)[C@@H]1C/C=C\CCCC(=O)O [PGE-2, 7-[3-hydroxy-2-(3-hydroxy-1-octenyl)-5-oxocyclopentyl]-5-heptenoic acid]
- Temperature Change (clitoris [1]; [5]): 2.1 ° F.
- Potency relative to PGE-1 (clitoral temperature increase) (clitoris [1]; Patient No. 1, 0.200 mcg PGE-2 about equal to 100 mcg PGE-1): about 500 times
- Temperature Change (clitoris [1]; [6]): 2.4 ° F.
- Temperature Change (clitoris [1]; [7]): 4.5 ° F.
- Temperature Change (clitoris [1]; [8]): 2.3 ° F.
- Temperature Change (clitoris [1]; [9]): 4.8 ° F.
- Temperature Change (clitoris [1]; [10]): 2.0 ° F.
- Temperature Change (clitoris [1]; Patient No. 2, 0.050 mcg in triacetin on clitoris): 1.8 ° F.
- Temperature Change (clitoris [1]; [11]): 2.4 ° F.
- Temperature Change (clitoris [1]; Patient No. 2, 10.0 mcg in triacetin on clitoris): 2.0 ° F.
- Clitoral temperature effect (conclusion) (clitoris [1]; both patients): increases in clitoral temperatures
- Change in Clitoral Blood Flow (clitoral artery; 0.020 mcg in triacetin): 0 cm/s
- Change in Clitoral Blood Flow (clitoral artery; 0.200 mcg in triacetin): 11 cm/s
- Change in Clitoral Blood Flow, percent in brackets (clitoral artery; 0.200 mcg in triacetin): +50%
- Change in Clitoral Blood Flow (clitoral artery; 0.400 mcg in triacetin): 12 cm/s
- Change in Clitoral Blood Flow, percent in brackets (clitoral artery; 0.400 mcg in triacetin): +92%
- Change in Clitoral Blood Flow (clitoral artery; 1.000 mcg in triacetin): 10 cm/s
- Change in Clitoral Blood Flow, percent in brackets (clitoral artery; 1.000 mcg in triacetin): +77%
- Change in Clitoral Blood Flow (clitoral artery; 10.0 mcg in triacetin): 10 cm/s
- Change in Clitoral Blood Flow, percent in brackets (clitoral artery; 10.0 mcg in triacetin): +100%
- Change in Clitoral Blood Flow (clitoral artery; 50.0 mcg in triacetin): 2 cm/s
- Change in Clitoral Blood Flow, percent in brackets (clitoral artery; 50.0 mcg in triacetin): +20%
- Dose resulting in an increase in clitoral blood flow (clitoral artery; triacetin solution with palmitic acid (PGDH inhibitor) and PGE2 in 10:1 weight ratio): 0.4 nanograms
- Best dose (clitoris [2]; Patient No. 1): 0.400 µg
- Doses with adverse effects (clitoris [2]; Patient No. 1): 50 µg
- Subjective Response (clitoris [2]; [5]): Rare tingle.
- Subjective Response (clitoris [2]; [6]): Very excited.
- Subjective Response (clitoris [2]; [7]): Very excited, 9/10.
- Subjective Response (clitoris [2]; [8]): Excited, 7/10.
- Subjective Response (clitoris [2]; [9]): Very excited.
- Subjective Response (clitoris [2]; [10]): Excited. 2/10 abdominal
- Dose with subjective reports of a sexual response (clitoris [2]; Patient No. 1, triacetin solution with palmitic acid (PGDH inhibitor) and PGE2 in 10:1 weight ratio): 2 nanograms
- Amount giving a sexual response (clitoris [2]; Patient No. 2): ≥ 0.050 µg
- Subjective Response (clitoris [2]; [11]): Excited.
- Sexual response after application (clitoris [3]; Example 1A, 20 μg with 150 μg phentolamine hydrochloride and 3 mg papaverine hydrochloride in liposomal solution, person, no sexual dysfunction): the clitoris became engorged and vaginal lubrication was noted
- Sexual response after application (clitoris [3]; Example 1B, 125 μg with 125 μg phentolamine, aqueous solution, 2 drops, same person): essentially the same response as in part A
- Sexual response after application (clitoris [3]; Example 1C, 125 μg alone in aqueous saline, 3 drops, same person): the same response described in part A but with reduced intensity
- Duration of clitoral enlargement and sexual excitement (clitoris [3]; [12]): gone within one hour after application of the composition
- Time at which stimulation peaked after application (clitoris [3]; [12]): around 15 minutes
- Sexual response after application (clitoris [3]; Example 2, 50 μg with 150 μg phentolamine hydrochloride, aqueous solution, person, no sexual dysfunction): warm tingling sexual feelings in their clitoris within one minute
- Response to repeat dosing (clitoris [3]; Example 2, repeat dose one and a half hours after the first dose): gave the same response as the first dose
- Intensity of response rated by subject (clitoris [3]; Example 2, scale of one (1) to ten (10), ten highest, 50 μg with 150 μg phentolamine hydrochloride): 8
- Sexual response after application (clitoris [3]; Example 5, 150 μg in liposomal solution, three drops, person with decreased sexual responsiveness): greatly increased their sexual desire and responsiveness
- Sexual response after application (clitoris [3]; [13]): had the best sexual experience of their life
- Time to tingling sexual feelings spreading over body (clitoris [3]; [13]): ≤ 1 min
- Stability in composition [4]: especially stabile
